Data published in patent publication US12030878B2 (BRISTOL-MYERS SQUIBB COMPANY, priority 2017, dated 2024).

Columns and labels:
Type in all cases: cell-based
human TLR7 = biological target: T1, human TLR7 (Homo sapiens, UniProt Q9NYK1); test: TLR7 inhibition reporter assay (HEK-Blue SEAP); details: HEK-Blue cells overexpressing human TLR7, stimulated with gardiquimod 7.5 μM, 22 hour incubation
T1 construct: host or cells: HEK-Blue cells
T1 sequence (Q9NYK1 27-1049): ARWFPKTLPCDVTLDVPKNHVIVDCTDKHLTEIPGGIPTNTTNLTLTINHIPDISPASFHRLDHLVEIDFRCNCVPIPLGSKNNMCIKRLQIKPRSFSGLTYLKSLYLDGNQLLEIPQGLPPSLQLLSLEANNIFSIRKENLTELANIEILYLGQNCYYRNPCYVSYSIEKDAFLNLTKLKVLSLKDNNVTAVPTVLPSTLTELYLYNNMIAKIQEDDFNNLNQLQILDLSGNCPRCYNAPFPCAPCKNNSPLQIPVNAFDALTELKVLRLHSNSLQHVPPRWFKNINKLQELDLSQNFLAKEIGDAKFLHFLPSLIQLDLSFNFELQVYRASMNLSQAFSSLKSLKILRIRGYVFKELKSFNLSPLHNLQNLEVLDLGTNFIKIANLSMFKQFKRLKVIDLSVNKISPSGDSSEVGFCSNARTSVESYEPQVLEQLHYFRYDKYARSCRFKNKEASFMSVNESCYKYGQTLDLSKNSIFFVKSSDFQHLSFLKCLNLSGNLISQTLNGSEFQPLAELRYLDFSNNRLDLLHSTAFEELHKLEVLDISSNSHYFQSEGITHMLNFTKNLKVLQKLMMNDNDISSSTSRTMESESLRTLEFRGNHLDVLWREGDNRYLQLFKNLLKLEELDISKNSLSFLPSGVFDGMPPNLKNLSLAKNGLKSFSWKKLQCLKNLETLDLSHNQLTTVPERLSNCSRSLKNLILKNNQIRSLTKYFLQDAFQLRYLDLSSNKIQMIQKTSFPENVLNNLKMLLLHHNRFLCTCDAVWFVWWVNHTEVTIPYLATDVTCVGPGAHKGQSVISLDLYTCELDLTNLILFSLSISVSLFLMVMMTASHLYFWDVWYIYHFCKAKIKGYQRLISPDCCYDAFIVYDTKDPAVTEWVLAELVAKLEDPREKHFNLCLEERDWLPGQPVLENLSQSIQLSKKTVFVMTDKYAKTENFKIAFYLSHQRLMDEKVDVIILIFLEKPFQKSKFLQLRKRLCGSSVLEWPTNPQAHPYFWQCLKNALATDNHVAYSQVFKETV
Procedure, shortened: (§1)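 SEAP read-out via HEK-Blue Detection medium after 22 h at 37 °C; percent inhibition relative to agonist-plus-DMSO and known-inhibitor wells. Agonists: TLR7 gardiquimod 7.5 μM, TLR8 R848 15.9 μM, TLR9 ODN2006 5 nM. Dose range 0.05 nM–50 μM, 30 min compound pre-treatment at RT.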

human TLR8 = biological target: T2, human TLR8 (Homo sapiens, UniProt Q9NR97); test: TLR8 inhibition reporter assay (HEK-Blue SEAP); details: HEK-Blue cells overexpressing human TLR8, stimulated with R848 15.9 μM, 22 hour incubation
T2 construct: host or cells: HEK-Blue cells
T2 sequence (Q9NR97 27-1041): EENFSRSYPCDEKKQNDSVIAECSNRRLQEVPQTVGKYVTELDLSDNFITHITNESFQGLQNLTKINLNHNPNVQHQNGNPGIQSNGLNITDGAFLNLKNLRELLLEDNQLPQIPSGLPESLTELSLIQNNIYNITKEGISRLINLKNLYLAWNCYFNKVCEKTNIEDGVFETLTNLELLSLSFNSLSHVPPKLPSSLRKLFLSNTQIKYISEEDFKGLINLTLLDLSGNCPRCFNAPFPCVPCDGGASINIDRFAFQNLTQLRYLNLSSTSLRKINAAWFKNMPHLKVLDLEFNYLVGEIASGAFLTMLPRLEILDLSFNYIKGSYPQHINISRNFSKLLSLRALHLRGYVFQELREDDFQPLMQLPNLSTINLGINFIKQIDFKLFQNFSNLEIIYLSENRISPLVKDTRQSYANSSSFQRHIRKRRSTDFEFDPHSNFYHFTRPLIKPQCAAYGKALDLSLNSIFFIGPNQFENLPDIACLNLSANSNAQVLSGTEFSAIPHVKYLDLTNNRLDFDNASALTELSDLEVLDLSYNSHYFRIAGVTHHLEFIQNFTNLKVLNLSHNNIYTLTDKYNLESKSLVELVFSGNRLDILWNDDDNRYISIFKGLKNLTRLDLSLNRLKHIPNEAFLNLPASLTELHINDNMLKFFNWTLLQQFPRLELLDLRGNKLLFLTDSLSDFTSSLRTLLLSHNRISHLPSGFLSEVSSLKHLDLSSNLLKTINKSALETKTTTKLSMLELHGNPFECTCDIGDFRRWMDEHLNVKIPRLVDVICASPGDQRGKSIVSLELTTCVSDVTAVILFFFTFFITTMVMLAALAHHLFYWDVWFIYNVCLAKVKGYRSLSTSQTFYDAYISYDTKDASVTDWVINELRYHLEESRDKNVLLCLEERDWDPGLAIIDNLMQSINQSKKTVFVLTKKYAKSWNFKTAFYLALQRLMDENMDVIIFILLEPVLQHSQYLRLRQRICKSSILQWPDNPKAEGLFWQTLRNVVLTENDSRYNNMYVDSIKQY
Procedure, shortened: as §1

human TLR9 = biological target: T3, human TLR9 (Homo sapiens, UniProt Q9NR96); test: TLR9 inhibition reporter assay (HEK-Blue SEAP); details: HEK-Blue cells overexpressing human TLR9, stimulated with ODN2006 5 nM, 22 hour incubation
T3 construct: host or cells: HEK-Blue cells
T3 sequence (Q9NR96 26-1032): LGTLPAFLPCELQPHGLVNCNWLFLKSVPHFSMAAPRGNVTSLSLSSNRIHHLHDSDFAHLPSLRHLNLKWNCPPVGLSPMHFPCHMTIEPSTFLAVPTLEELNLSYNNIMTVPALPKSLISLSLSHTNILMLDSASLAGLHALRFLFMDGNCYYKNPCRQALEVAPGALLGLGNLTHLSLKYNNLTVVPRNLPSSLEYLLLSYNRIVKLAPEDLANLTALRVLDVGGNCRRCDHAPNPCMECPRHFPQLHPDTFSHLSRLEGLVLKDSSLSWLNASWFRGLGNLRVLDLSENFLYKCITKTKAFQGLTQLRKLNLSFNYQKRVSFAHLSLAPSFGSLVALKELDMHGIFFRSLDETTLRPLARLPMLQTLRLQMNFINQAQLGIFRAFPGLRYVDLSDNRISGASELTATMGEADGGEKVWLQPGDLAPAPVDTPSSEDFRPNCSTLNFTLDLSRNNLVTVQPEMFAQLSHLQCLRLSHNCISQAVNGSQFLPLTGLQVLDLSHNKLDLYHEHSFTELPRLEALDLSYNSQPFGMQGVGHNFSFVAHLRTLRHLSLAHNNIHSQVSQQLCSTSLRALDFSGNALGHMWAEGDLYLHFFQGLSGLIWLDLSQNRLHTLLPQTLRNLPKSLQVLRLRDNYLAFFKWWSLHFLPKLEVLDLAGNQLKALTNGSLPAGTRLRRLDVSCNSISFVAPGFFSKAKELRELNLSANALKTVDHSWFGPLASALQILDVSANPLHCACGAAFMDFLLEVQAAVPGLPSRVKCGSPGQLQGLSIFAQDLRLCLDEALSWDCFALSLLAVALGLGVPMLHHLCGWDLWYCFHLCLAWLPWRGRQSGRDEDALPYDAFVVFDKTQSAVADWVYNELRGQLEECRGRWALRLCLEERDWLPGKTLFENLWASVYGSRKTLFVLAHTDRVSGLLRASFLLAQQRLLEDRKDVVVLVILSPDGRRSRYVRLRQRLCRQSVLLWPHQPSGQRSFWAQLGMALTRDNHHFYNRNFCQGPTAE
Procedure, shortened: as §1

Row | IC50 (human TLR7) | IC50 (human TLR8) | IC50 (human TLR9) | SMILES
1 | 16.1 nM | 5.3 nM | 17000 nM | CNC(=O)CN1CCC(COc2ccc3[nH]c(-c4cn(C)c(=O)c(C)c4C)c(C(C)C)c3c2)CC1 [Example 116, 2-(4-(((3-isopropyl-2-(1,4,5-trimethyl-6-oxo-1,6-dihydropyridin-3-yl)-1H-indol-5-yl)oxy)methyl)piperidin-1-yl)-N-methylacetamide]
2 | 120 nM | 36.1 nM | 1570 nM | COc1ccc(-c2[nH]c3ccc(OCC(=O)NCCN)cc3c2C(C)C)cc1OC [Example 117, N-(2-aminoethyl)-2-((2-(3,4-dimethoxyphenyl)-3-isopropyl-1H-indol-5-yl)oxy)acetamide]
3 | 380 nM | 9 nM | 309 nM | CCc1c(-c2ccc(OC)c(OC)c2)[nH]c2ccc(OC3CCN(C4CCN(CC(C)C)CC4)CC3)cc12 [Example 118, 2-(3,4-dimethoxyphenyl)-3-ethyl-5-((1′-isobutyl-[1,4′-bipiperidin]-4-yl)oxy)-1H-indole]
4 | 109 nM | 177 nM | 2700 nM | COc1ccc(-c2[nH]c3ccc(OCC(=O)NC[C@H]4CCNC4)cc3c2C(C)C)cc1OC [Example 119, (S)-2-((2-(3,4-dimethoxyphenyl)-3-isopropyl-1H-indol-5-yl)oxy)-N-(pyrrolidin-3-ylmethyl)acetamide]
5 | 95.5 nM | 46.9 nM | 2660 nM | COc1ccc(-c2[nH]c3ccc(OCC(=O)N4CCC[C@H](N)C4)cc3c2C(C)C)cc1OC [Example 120, (S)-1-(3-aminopiperidin-1-yl)-2-((2-(3,4-dimethoxyphenyl)-3-isopropyl-1H-indol-5-yl)oxy)ethan-1-one]
6 | 328 nM | 113 nM | 1010 nM | COc1ccc(-c2[nH]c3ccc(OCC(=O)N4CCCC(CCN)C4)cc3c2C(C)C)cc1OC (stereo not drawn) [Example 122, 1-(3-(2-aminoethyl)piperidin-1-yl)-2-((2-(3,4-dimethoxyphenyl)-3-isopropyl-1H-indol-5-yl)oxy)ethan-1-one]
7 | 164 nM | 227 nM | 2310 nM | COc1ccc(-c2[nH]c3ccc(OCC(=O)N4CCC[C@]5(CCCC[C@@H]5N)C4)cc3c2C(C)C)cc1OC [Example 123, 1-((6R,7S)-7-amino-2-azaspiro[5.5]undecan-2-yl)-2-((2-(3,4-dimethoxyphenyl)-3-isopropyl-1H-indol-5-yl)oxy)ethan-1-one]
8 | 111 nM | 12.8 nM | 1900 nM | COc1ccc(-c2[nH]c3ccc(OCC(=O)NCC4CCCCN4)cc3c2C(C)C)cc1OC (stereo not drawn) [Example 126, 2-((2-(3,4-dimethoxyphenyl)-3-isopropyl-1H-indol-5-yl)oxy)-N-(piperidin-2-ylmethyl)acetamide]
9 | 35.2 nM | 15.3 nM | 858 nM | COc1ccc(-c2[nH]c3ccc(OCC(=O)N(C)C4CCCNC4)cc3c2C(C)C)cc1OC (stereo not drawn) [Example 127, 2-((2-(3,4-dimethoxyphenyl)-3-isopropyl-1H-indol-5-yl)oxy)-N-methyl-N-(piperidin-3-yl)acetamide]
10 | 62.1 nM | 54.2 nM | 576 nM | COc1ccc(-c2[nH]c3ccc(OCC(=O)NC4CCCC(N)C4)cc3c2C(C)C)cc1OC (stereo not drawn) [Example 128, N-(3-aminocyclohexyl)-2-((2-(3,4-dimethoxyphenyl)-3-isopropyl-1H-indol-5-yl)oxy) acetamide]
11 | 57.9 nM | 45.1 nM | 2610 nM | COc1ccc(-c2[nH]c3ccc(OCC(=O)N4CCNCC4)cc3c2C(C)C)cc1OC [Example 129, 2-((2-(3,4-dimethoxyphenyl)-3-isopropyl-1H-indol-5-yl)oxy)-1-(piperazin-1-yl)ethan-1-one]
12 | 398 nM | 18.7 nM | 2060 nM | COc1ccc(-c2[nH]c3ccc(OCC(=O)N[C@@H]4CCCC[C@H]4N)cc3c2C(C)C)cc1OC [Example 130, N-((1R,2R)-2-aminocyclohexyl)-2-((2-(3,4-dimethoxyphenyl)-3-isopropyl-1H-indol-5-yl)oxy)acetamide]

Row | SMILES | IC50 (human TLR7) | IC50 (human TLR8) | IC50 (human TLR9)
13 | COc1ccc(-c2[nH]c3ccc(OCC(=O)N(C)C4CN5CCC4CC5)cc3c2C(C)C)cc1OC (stereo not drawn) [Example 121, 2-((2-(3,4-dimethoxyphenyl)-3-isopropyl-1H-indol-5-yl)oxy)-N-methyl-N-((1s,4s)-quinuclidin-3-yl)acetamide] | 26.8 nM | 57.7 nM | 3550 nM
14 | COc1ccc(-c2[nH]c3ccc(OCC(=O)NC4CC[C@H]5CC[C@@H]4N5C)cc3c2C(C)C)cc1OC (stereo partly drawn) [Example 124, 2-((2-(3,4-dimethoxyphenyl)-3-isopropyl-1H-indol-5-yl)oxy)-N-((5S)-8-methyl-8-azabicyclo[3.2.1]octan-2-yl)acetamide] | 227 nM | 51.2 nM | 4030 nM
15 | COc1ccc(-c2[nH]c3ccc(OCC(=O)NC4CN5CCC4CC5)cc3c2C(C)C)cc1OC (stereo not drawn) [Example 125, 2-((2-(3,4-dimethoxyphenyl)-3-isopropyl-1H-indol-5-yl)oxy)-N-((1s,4s)-quinuclidin-3-yl)acetamide] | 19 nM | 44.4 nM | 6330 nM
